# Experimental data as given in ChEMBL document CHEMBL1201862, “PubChem BioAssay data set” (2004).
# Activity calls are given as the source filed them. Rule as the data show it, for most assays here: actives have a measured EC50 and inactives only a lower limit.
# Tests used:
# [1] = alpha-synuclein stem-loop luciferase translation blockers – H4 neuroglioma cells, luminescence, confirmation (AID 1988); type: functional, cell-based
# [2] = Luminescence Cell-Based Dose Response HTS to Identify Inhibitors of 5'UTR Stem-Loop Driven Prion Protein mRNA Translation in H4 Neuroglioblastoma Cells. [Related pubchem assays: 1827 (Project Summary), 1813 (Primary HTS)]; type: functional
# [3] = luciferase reporter signal suppression in cells – H4 neuroglioma cells, luminescence, dose response (AID 1990); type: functional, cell-based
# [4] = Luminescence Cell-Based Dose Retest to Confirm Inhibitors of Cancer Stem Cells. [Related pubchem assays (depositor defined):AID2717, AID2721]; type: functional; conditions: Homo sapiens
# [5] = test system: Streptococcus; assay: GAS UMAA2166 growth inhibition – luminescence, BacTiterGlo, counter-screen for streptokinase expression inhibitor project, dose response (AID 1915); type: functional, organism-based;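 also: potency for reduction of bacterial viability or growth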
# [6] = target: T1, Streptokinase A (Streptococcus pyogenes serotype M1, UniProt P10520); assay: viability-normalized secreted streptokinase activity reduction – plasminogen activation absorbance, OD405, dose response (AID 1914); type: functional, Streptococcus pyogenes M1 GAS;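 also: secreted streptokinase activity via plasminogen activation per viability signal from cell pellet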
# T1 sequence (P10520 whole entry): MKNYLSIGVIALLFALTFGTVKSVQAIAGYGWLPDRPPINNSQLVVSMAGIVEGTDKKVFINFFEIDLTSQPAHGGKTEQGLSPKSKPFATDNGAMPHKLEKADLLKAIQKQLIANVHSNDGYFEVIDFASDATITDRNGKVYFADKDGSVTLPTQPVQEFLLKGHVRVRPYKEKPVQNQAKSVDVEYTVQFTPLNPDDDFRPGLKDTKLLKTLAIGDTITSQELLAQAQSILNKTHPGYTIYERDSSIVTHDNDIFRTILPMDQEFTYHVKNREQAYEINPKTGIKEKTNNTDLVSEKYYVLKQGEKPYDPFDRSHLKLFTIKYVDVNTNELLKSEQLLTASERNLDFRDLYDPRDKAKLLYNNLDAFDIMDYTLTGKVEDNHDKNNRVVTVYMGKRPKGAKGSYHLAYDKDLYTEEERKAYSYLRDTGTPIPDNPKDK
# [7] = test system: Streptococcus sp. 'group A'; assay: Streptococcus pyogenes SK(-)GAS viability under kanamycin – luminescence, BacTiterGlo, confirmation, counter-screen for streptokinase expression inhibitor project, dose response (AID 1900); type: functional, organism-based
# [8] = test system: INS1; assay: INS-1E survival protection against cytokine death – cell-based, luminescence, retest, dose response (AID 449756); type: functional; conditions: Rattus norvegicus;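 also: cell death triggered by IL-1 beta plus TNF-alpha plus IFN-gamma mixture; protective hits raise ATP signal compared with cytokine alone wells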
# [9] = target: T2, Cytochrome P450 1A2 (Homo sapiens, UniProt P05177);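 also: PubChem cytochrome P450 panel assay, CYP1A2 panel member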
# T2 sequence (P05177 whole entry): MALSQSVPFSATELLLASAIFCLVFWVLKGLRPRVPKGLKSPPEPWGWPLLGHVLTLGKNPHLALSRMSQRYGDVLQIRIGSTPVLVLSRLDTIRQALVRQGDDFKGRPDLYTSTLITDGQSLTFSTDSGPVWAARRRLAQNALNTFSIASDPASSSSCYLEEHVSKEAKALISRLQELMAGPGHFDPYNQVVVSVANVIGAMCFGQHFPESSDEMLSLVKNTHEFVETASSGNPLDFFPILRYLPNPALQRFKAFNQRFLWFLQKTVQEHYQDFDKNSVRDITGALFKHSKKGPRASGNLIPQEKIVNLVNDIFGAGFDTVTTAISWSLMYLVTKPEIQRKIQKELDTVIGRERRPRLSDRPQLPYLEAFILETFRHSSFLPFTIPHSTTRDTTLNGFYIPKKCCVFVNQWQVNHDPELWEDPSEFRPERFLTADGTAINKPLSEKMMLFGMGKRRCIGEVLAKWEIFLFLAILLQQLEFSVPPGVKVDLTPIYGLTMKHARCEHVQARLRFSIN
# [10] = NIH3T3 cell viability loss – ATP luminescence, mouse fibroblasts, counter-screen, dose response (AID 2010); type: functional, cell-based;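 also: cells exposed to compound for about 90 hours before reading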
# [11] = Trypanosoma cruzi growth suppression in host cells – NIH3T3 host cells, beta-gal luminescence, confirmation (AID 2044); type: functional, cell-based;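 also: intracellular parasites grown in NIH/3T3 mouse fibroblasts as host cells; luminescent beta-galactosidase reporter signal from transgenic T. cruzi replicating inside host cells; inhibitors lower the luminescence signal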
# [12] = target: Cytochrome P450 3A4 (Homo sapiens, UniProt P08684);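 also: CYP3A4 tested as one member of a cytochrome P450 panel screen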
# [13] = target: Cytochrome P450 2D6 (Homo sapiens, UniProt P10635);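 also: CYP2D6 member of a cytochrome P450 panel assay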
# [14] = target: Cytochrome P450 2C9 (Homo sapiens, UniProt P11712)
# [15] = target: T3, Heat shock factor protein 1 (Mus musculus, UniProt P38532); assay: decrease of HSF1-responsive luciferase luminescence – cell-based, NIH3T3, dose retest, confirmation (AID 2382); type: functional;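 also: NIH3T3 fibroblasts with HSF1-driven luciferase reporter stressed by proteasome inhibitor MG132; luminescence from HSF1-driven luciferase expression after 8 hours of MG132 stress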
# T3 sequence (P38532 whole entry): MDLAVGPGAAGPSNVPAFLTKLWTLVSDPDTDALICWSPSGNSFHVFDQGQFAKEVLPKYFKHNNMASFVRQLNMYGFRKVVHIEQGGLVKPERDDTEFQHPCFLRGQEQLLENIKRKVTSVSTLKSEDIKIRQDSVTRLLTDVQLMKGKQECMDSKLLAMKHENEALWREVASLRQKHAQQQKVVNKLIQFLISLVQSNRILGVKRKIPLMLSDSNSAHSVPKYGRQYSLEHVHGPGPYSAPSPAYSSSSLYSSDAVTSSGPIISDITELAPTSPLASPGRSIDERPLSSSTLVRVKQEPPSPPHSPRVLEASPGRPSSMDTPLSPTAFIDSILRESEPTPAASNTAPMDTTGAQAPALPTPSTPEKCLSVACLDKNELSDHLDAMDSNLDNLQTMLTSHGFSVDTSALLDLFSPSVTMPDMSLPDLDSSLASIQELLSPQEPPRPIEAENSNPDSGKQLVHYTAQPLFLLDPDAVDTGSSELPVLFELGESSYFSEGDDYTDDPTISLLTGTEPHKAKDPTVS
# Cytochrome P450 2C9, sequence (P11712 whole entry): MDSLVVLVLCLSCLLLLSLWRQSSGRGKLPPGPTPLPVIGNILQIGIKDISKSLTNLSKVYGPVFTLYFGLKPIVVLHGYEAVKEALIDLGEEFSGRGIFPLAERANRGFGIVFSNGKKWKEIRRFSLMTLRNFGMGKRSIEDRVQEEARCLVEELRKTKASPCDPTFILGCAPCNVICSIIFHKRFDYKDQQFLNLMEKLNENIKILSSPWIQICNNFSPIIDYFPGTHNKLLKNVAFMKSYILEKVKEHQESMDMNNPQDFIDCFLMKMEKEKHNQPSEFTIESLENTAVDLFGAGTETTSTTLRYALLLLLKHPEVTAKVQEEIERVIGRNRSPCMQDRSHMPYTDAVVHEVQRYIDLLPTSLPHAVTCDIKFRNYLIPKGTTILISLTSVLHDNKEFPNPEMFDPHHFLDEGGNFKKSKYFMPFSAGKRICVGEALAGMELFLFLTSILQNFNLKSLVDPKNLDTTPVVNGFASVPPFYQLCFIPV
# Cytochrome P450 2D6, sequence (P10635 whole entry): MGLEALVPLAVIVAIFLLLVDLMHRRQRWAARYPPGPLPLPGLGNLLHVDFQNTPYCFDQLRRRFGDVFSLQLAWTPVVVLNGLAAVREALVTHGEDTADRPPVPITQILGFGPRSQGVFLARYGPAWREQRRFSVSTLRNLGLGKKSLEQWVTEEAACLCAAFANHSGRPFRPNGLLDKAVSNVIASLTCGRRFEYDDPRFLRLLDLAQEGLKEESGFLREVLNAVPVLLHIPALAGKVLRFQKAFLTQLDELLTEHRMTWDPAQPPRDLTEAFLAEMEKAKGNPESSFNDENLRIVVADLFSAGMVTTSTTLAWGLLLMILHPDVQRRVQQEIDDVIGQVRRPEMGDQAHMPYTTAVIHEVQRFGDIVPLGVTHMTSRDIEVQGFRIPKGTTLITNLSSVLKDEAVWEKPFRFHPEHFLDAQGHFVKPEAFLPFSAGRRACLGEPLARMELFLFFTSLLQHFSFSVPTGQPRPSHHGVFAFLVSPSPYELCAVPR
# Cytochrome P450 3A4, sequence (P08684 whole entry): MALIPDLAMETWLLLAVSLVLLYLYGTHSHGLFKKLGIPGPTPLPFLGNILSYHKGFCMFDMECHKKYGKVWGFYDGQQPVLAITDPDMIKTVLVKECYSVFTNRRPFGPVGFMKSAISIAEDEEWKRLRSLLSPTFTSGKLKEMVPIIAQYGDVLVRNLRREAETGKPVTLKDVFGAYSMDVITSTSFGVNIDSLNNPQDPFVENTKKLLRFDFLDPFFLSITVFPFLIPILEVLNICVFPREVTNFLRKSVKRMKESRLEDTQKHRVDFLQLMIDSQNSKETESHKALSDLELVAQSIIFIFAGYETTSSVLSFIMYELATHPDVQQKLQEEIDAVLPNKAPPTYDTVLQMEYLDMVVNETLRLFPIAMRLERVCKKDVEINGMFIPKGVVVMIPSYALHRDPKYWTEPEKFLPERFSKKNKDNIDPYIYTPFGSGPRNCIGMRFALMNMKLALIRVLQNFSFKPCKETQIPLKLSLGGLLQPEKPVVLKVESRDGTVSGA
structure (smiles),measurement,setting,value
C=CCn1c(CNc2ccccc2)nnc1SCC(=O)N/N=C/c1ccccc1O,EC50,[1],> 120 µM (not active)
same,EC50,[2],> 120 µM (not active)
same,EC50,[3],18.3 µM (active)
COc1cccc(C(=O)/C=C/c2ccc(N3CCCCC3)c([N+](=O)[O-])c2)c1,AC50,[4],7.86 µM (active)
NS(=O)(=O)c1ccc(N/N=C2/CCCCC2C2CCCCC2)c([N+](=O)[O-])c1 (stereo unspecified),EC50,[5],7.18 µM (active)
same,EC50,[6],7.92 µM (inconclusive)
same,EC50,[7],3.34 µM (active)
same,AC50,[8],7.29 µM (active)
CN1CCN(C(=O)O[C@@H]2c3nccnc3C(=O)N2c2ccc(Cl)cn2)CC1,AC50,[9],39.8 µM (inconclusive)
COc1ccccc1-c1nnc(SCC(=O)N2CC(C)CC(C)C2)o1 (stereo unspecified),EC50,[1],> 120 µM (not active)
same,EC50,[2],> 120 µM (not active)
same,EC50,[3],> 120 µM (not active)
CCC(c1nnnn1CCc1ccccc1)N(Cc1ccco1)Cc1cc2c(C)ccc(C)c2nc1O (stereo unspecified),EC50,[10],> 60 µM (not active)
same,EC50,[1],> 120 µM (not active)
same,EC50,[2],> 120 µM (not active)
same,EC50,[3],> 120 µM (not active)
same,EC50,[11],1.41 µM (active)
CC(=O)N1CCN(C)CC1,AC50,[9],31.6 µM (inconclusive)
COc1ccccc1-c1nc(NCCNC(C)=O)c2ccccc2n1,AC50,[9],15.8 µM (inconclusive)
CC(=O)NCCNc1ccnc(-c2ccccc2C(F)(F)F)n1,AC50,[9],15.8 µM (inconclusive)
same,AC50,[12],15.8 µM (inconclusive)
Cc1cc(C)n2nc(-c3sccc3-n3cccc3)cc2n1,AC50,[12],3.55 µM (inconclusive)
same,AC50,[13],35.5 µM (inconclusive)
CC(=O)c1cccc(NC(=O)CSc2ccc(-c3ccccn3)nn2)c1,EC50,[1],> 120 µM (not active)
same,EC50,[2],14.6 µM (active)
same,EC50,[3],> 120 µM (not active)
COc1ccc(-n2c(=O)c(-c3cccs3)nc3cnc(N4CCOCC4)nc32)cc1,AC50,[14],20 µM (inconclusive)
same,AC50,[9],12.6 µM (inconclusive)
same,AC50,[12],20 µM (inconclusive)
CC(C)CNc1nc(N)c([N+](=O)[O-])c(NCC2CCCO2)n1 (stereo unspecified),EC50,[1],> 120 µM (not active)
same,EC50,[2],4.6 µM (active)
same,EC50,[3],13.5 µM (active)
O=C(O)CN1CCN(Cc2ccccc2)C1=O,AC50,[14],11.2 µM (inconclusive)
same,AC50,[13],15.8 µM (inconclusive)
c1nc(NCCc2c[nH]cn2)c2nc[nH]c2n1,AC50,[9],5.01 µM (inconclusive)
same,AC50,[12],3.98 µM (inconclusive)
C/C(=N\NC(=O)c1ccc(C)cc1)c1c(C)nn(-c2ccccc2)c1O,EC50,[5],14.7 µM (active)
same,EC50,[6],> 150 µM (not active)
same,EC50,[7],3.96 µM (active)
same,AC50,[8],3.15 µM (active)
COC(=O)c1ccc(CSc2nc3cc(Cl)ccc3s2)o1,AC50,[12],25.1 µM (inconclusive)
same,AC50,[13],20 µM (inconclusive)
COC(=O)N1CCC2(CCCN(Cc3nccs3)C2)CC1,AC50,[12],15.8 µM (inconclusive)
same,AC50,[13],12.6 µM (inconclusive)
Clc1ccc(Sc2ccc(/C=N/n3cnnc3)o2)cc1,AC50,[13],15.8 µM (inconclusive)
NC(CC(=O)Nc1ccc(F)cc1)=NO,EC50,[15],> 195 µM (not active)
CCC(=O)Nc1cc(-c2nn(CC(=O)N3CCCCC3)c(=O)c3ccccc23)ccc1N1CCOCC1,EC50,[15],> 195 µM (not active)
O=S(=O)(/N=C(/c1ccccc1Cl)N1CCOCC1)c1ccccc1,EC50,[15],> 195 µM (not active)
CN(C)C(=O)c1ccc(NC(=O)c2cccnc2)cc1,AC50,[8],6.14 µM (active)
CC1CC(C)CN(C(=O)c2ccc(CSc3nc4cc[nH]cc-4n3)cc2)C1 (stereo unspecified),EC50,[15],> 195 µM (not active)
Cc1ccc(C(=O)NC(=C(Cl)Cl)S(=O)(=O)c2ccccc2)cc1,AC50,[4],3.29 µM (active)
CCNc1ncc2nc(CCc3ccccc3)c(=O)n(Cc3cccc(OC)c3)c2n1,AC50,[9],12.6 µM (inconclusive)
Cc1cccc(N2CC(=O)C(c3nc4ccccc4n3C)=C2N)c1,AC50,[9],14.1 µM (inconclusive)
COc1ccccc1-c1nccc(NCc2cccnc2)n1,AC50,[13],20 µM (inconclusive)
COC(=O)[C@H](CC(C)C)N(Cc1ccccc1)S(=O)(=O)N(Cc1ccc(OC)cc1)[C@@H](CC(C)C)C(=O)OC,AC50,[8],5.77 µM (active)
O=C(CN1CCN(c2ccc(O)cc2)CC1)Nc1cc(S(=O)(=O)N2CCCC2)ccc1Cl,EC50,[15],> 195 µM (not active)
c1ccc(N(c2ccccc2)c2nc(N3CCCC3)nc(-n3ccnc3)n2)cc1,AC50,[4],5.16 µM (active)
same,EC50,[10],> 60 µM (not active)
same,EC50,[5],5.49 µM (active)
same,EC50,[6],> 150 µM (not active)
same,EC50,[7],5.55 µM (active)
same,EC50,[11],1.84 µM (active)
COc1cccc(OC)c1C(=O)NC(=S)N1CCN(c2ccc(C(F)(F)F)cc2[N+](=O)[O-])CC1,AC50,[13],20 µM (inconclusive)
O=C(OC(C(=O)NCC1CCCO1)c1ccc(F)cc1)c1cccs1 (stereo unspecified),EC50,[15],> 195 µM (not active)
COc1ccc(/C=N/NC(=S)Nc2ccccc2[N+](=O)[O-])cc1O,AC50,[4],4.87 µM (active)
OCCCn1c(CCNc2nc(-c3ccc(Cl)cc3)cs2)nc2cc(C(F)(F)F)ccc21,AC50,[4],23.9 µM (active)
CCOC(=O)c1ccc2ncc(C(C)=O)c(O)c2c1,EC50,[15],> 195 µM (not active)
CC/C(NCc1cc(OC)cc(OC)c1)=C1/C(=O)NC(=O)N(C2CCCCC2)C1=O,EC50,[1],27.2 µM (active)
same,EC50,[2],> 120 µM (not active)
same,EC50,[3],16 µM (active)
Cc1ccc(S(=O)(=O)N2CCCCC2c2cccnc2)c(C)c1C (stereo unspecified),AC50,[8],57.2 µM (active)
CCOC(=O)c1cc(CC)sc1NC(=O)CSc1nc2ccccc2c(=O)n1Cc1ccco1,EC50,[1],17.8 µM (active)
same,EC50,[2],> 120 µM (not active)
same,EC50,[3],> 120 µM (not active)
Cc1cc(=O)oc2c(OS(C)(=O)=O)c(OS(C)(=O)=O)ccc12,AC50,[9],0.794 µM (inconclusive)
CC1(C)CC(=O)C(C(c2cccnc2)C2C(=O)CC(C)(C)CC2=O)C(=O)C1,EC50,[15],> 195 µM (not active)
COc1ccc(C(=O)NCC2(c3ccccc3)CCCC2)c(OC)c1,AC50,[4],1.22 µM (active)
COc1ccc(C(O)c2nccn2Cc2ccccc2)cc1 (stereo unspecified),AC50,[9],6.31 µM (inconclusive)
COc1ccc(S(=O)(=O)N2CCCN(CCC(=O)Nc3cccc(C(F)(F)F)c3)CC2)cc1,AC50,[14],39.8 µM (inconclusive)
same,AC50,[9],15.8 µM (inconclusive)
same,AC50,[12],39.8 µM (inconclusive)
COc1ccccc1N1CCN(Cc2cc(=O)n3ccsc3n2)CC1,AC50,[13],22.4 µM (inconclusive)
CCOC(=O)c1ncn2c1CN(C)C(=O)c1cc(F)ccc1-2 [FLUMAZENIL],AC50,[9],39.8 µM (inconclusive)
O=C(NC1CCCCC1)C1CCN(C(=O)c2ccc(-c3ccccc3)cc2)CC1,EC50,[1],77.5 µM (active)
same,EC50,[2],> 120 µM (not active)
same,EC50,[3],> 120 µM (not active)
